One assay concerns the target T1, V600E mutant B-raf (Homo sapiens, UniProt P15056, V600E).
T1 construct: A375 cells, a human melanoma cell line having the V600E mutant B-raf is used in this assay; endogenous in cells; host or cells: A375 human melanoma cells
As to the kind of experiment: B-raf cell-based assay (ratio of phospho-ERK1/2 to total ERK1/2 in A375 cells). The settings on record: A375 human melanoma cells, P-ERK/total ERK. The procedure: A cell-based assay was optimized to assay the ability of compounds to inhibit B-raf activity in a whole cell context. […] The cell-based assay quantifies the ratio of phospho-ERK1/2 to total ERK1/2 and can thereby assay the cellular inhibition of B-raf kinase activity. A375 cells are plated into 96 well plates and grown to confluence. The cells are then changed into starve media (DMEM/0.1% BSA) for 60 minutes. Compounds in DMSO dose curves are then diluted in starve media and added to cells. […] After a 60 minute incubation the cells are fixed for 20 minutes at RT in 4% formaldehyde with 0.1% Triton X-100, protease and phosphatase inhibitors in PBS. The cells are washed four times in PBS then blocked for 60 minutes using a one to one mix of Odyssey blocking buffer (Li-Cor Biosciences, Inc) and PBS. Primary antibodies (rabbit anti-phospho p42/p44 MAPK (P-ERK1/2) from Cell Signaling Technology and mouse anti-ERK2 from Santa Cruz Biotechnology) are diluted in blocking buffer, added to the cells and incubated overnight at 4° C. The cells are then washed four times in PBS/0.1% Tween-20. Secondary antibodies (anti-mouse IRDye 800CW from Rockland, Inc and anti-rabbit AlexaFlour680 from Molecular Probes) are diluted in blocking buffer/0.5% Tween and incubated on cells for 60 minutes. After 4 washes in PBS/0.1% Tween-20 the microplate is scanned on an Odyssey Infrared Imager (Li-Cor Bioscience) which can read the signal given by the two secondary antibodies on their respective channels. The ratio of P-ERK/total ERK is determined and IC50s generated using Excel-XLfit software.

For a further assay, the target named is recombinant HuBraf V600E (Homo sapiens, UniProt P15056, V600E). As to the kind of experiment: B-raf Homogenous Time Resolved Fluorescent (HTRF) kinase assay. To be noted: human mutant B-raf V600E, substrate MEK1, 10 uM ATP, read-out: HTRF Enzyme assay Data IC50. Format: biochemical. Here is the method: B-raf-Homogenous Time Resolved Fluorescent (HTRF) Kinase Assay
The final concentration of the kinase reaction buffer is 50 mM Tris-HCL pH 7.5, 10 mM MgCl2, 0.5% glucose, 0.5 mM DTT, 0.01% BSA. […] The detection reaction proceeds for one hour and is read on a RubyStar (BMG Labtech) counter. IC50s for the test compounds are generated using Excel-XLfit software.

The structures appear in SMILES notation. Where two headings read alike, the source gives them in different places.

IC50 data for 23 compounds are collected here from patent publication US8557830B2, “RAF kinase modulators and methods of use” (Amgen Inc., priority 2007, dated 2013).

Sequence of recombinant HuBraf V600E (P15056 whole entry V600E): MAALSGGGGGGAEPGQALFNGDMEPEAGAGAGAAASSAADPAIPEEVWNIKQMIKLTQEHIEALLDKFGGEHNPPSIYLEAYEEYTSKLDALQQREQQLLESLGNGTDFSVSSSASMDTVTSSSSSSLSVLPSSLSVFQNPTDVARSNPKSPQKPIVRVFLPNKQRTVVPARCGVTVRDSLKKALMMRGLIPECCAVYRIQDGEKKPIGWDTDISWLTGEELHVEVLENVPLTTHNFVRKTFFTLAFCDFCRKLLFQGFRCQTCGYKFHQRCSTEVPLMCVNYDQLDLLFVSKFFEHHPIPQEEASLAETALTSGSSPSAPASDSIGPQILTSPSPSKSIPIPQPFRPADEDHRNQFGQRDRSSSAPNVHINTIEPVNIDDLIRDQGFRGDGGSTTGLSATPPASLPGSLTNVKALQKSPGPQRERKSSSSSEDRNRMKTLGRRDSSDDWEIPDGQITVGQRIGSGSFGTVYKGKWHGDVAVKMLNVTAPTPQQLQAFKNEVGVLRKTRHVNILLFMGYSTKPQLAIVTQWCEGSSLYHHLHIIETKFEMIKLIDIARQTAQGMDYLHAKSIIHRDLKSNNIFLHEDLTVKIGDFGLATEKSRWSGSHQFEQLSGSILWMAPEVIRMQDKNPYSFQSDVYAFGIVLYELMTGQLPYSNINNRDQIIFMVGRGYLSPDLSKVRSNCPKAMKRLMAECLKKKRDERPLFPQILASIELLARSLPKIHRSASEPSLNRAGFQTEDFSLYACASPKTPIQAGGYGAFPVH
T1 sequence (P15056 whole entry V600E): as above

Regarding `Cc1ccc2c(Nc3ccc4c(c3)C(F)(F)C(=O)N4C)nccc2c1Nc1ncccc1-c1ncnc2[nH]ccc12` [Example 45, 3,3-difluoro-1-methyl-5-((6-methyl-5-((3-(7H-pyrrolo[2,3-d]pyrimidin-4-yl)-2-pyridinyl)amino)-1-isoquinolinyl)amino)-1,3-dihydro-2H-indol-2-one], the IC50 at V600E mutant B-raf (Table I) worked out at 15 nM; on recombinant HuBraf V600E (Table I), 8 nM.

`Cc1ccc2c(Nc3ccc(C#N)cc3)nccc2c1Nc1ncccc1-c1ncnc2[nH]cnc12` [Example 57, 4-((6-methyl-5-((3-(9H-purin-6-yl)-2-pyridinyl)amino)-1-isoquinolinyl)amino)benzonitrile]: the half-inhibitory concentration (IC50) on V600E mutant B-raf (Table I) amounted to 4 nM; at recombinant HuBraf V600E (Table I), 0.6 nM.

For `Cc1ccc2c(Nc3ccc(OC(F)F)cc3)ncnc2c1Nc1ncccc1-c1ncnc2[nH]cnc12` [Example 76, N-4-(4-(difluoromethoxy)phenyl)-7-methyl-N-8-(3-(9H-purin-6-yl)-2-pyridinyl)-4,8-quinazolinediamine], the IC50 is 5 nM on V600E mutant B-raf (Table II) and 9 nM on recombinant HuBraf V600E (Table II).

Take `Cc1ccc2c(Nc3ccc4c(c3)OC(F)(F)O4)nccc2c1Nc1ncccc1-c1ncnc2cc[nH]c12` [Example 64, N-1-(2,2-difluoro-1,3-benzodioxol-5-yl)-6-methyl-N-5-(3-(5H-pyrrolo[3,2-d]pyrimidin-4-yl)-2-pyridinyl)-1,5-isoquinolinediamine]: the half-inhibitory concentration (IC50) came out at 111 nM on V600E mutant B-raf (Table I) and 302 nM on recombinant HuBraf V600E (Table I).

Regarding `Cc1ccc2c(Nc3ccc4c(c3)NC(=O)C4)nccc2c1Nc1ncccc1-c1ncnc2[nH]ccc12` [Example 50, 6-((6-methyl-5-((3-(7H-pyrrolo[2,3-d]pyrimidin-4-yl)-2-pyridinyl)amino)-1-isoquinolinyl)amino)-1,3-dihydro-2H-indol-2-one], the figures for the concentration for half-maximal inhibition (IC50) at V600E mutant B-raf (Table I) and on recombinant HuBraf V600E (Table I) were 45 nM and 12 nM, respectively.

With `Cc1ccc2c(Nc3ccc(Cl)cc3)nccc2c1Nc1ncccc1-c1ncnc2[nH]ccc12` [Example 42, N-1-(4-chlorophenyl)-6-methyl-N-5-(3-(7H-pyrrolo[2,3-d]pyrimidin-4-yl)-2-pyridinyl)-1,5-isoquinolinediamine], the IC50 worked out at 5 nM on V600E mutant B-raf (Table I) and 3 nM at recombinant HuBraf V600E (Table I).

`Cc1ccc2c(Nc3ccc4c(c3)C(F)(F)C(=O)N4)nccc2c1Nc1ncccc1-c1ncnc2[nH]ccc12` [Example 46, 3,3-difluoro-5-((6-methyl-5-((3-(7H-pyrrolo[2,3-d]pyrimidin-4-yl)-2-pyridinyl)amino)-1-isoquinolinyl)amino)-1,3-dihydro-2H-indol-2-one]: the IC50 on V600E mutant B-raf (Table I) was found to be 25 nM; on recombinant HuBraf V600E (Table I) it was 15 nM.

Take `Cc1ccc2c(Nc3ccc4c(c3)C(F)(F)OC(F)(F)O4)nccc2c1Nc1ncccc1-c1ncnc2[nH]ccc12` [Example 54, 6-methyl-N-5-(3-(7H-pyrrolo[2,3-d]pyrimidin-4-yl)-2-pyridinyl)-N-1-(2,2,4,4-tetrafluoro-4H-1,3-benzodioxin-6-yl)-1,5-isoquinolinediamine]: the figures for the IC50 on V600E mutant B-raf (Table I) and at recombinant HuBraf V600E (Table I) were 99 nM and 205 nM, respectively.

As to `Cc1ccc2c(Nc3ccc(C#N)cc3)nccc2c1Nc1ncccc1-c1ncnc2[nH]ncc12` [Example 71, 4-((6-methyl-5-((3-(1H-pyrazolo[3,4-d]pyrimidin-4-yl)-2-pyridinyl)amino)-1-isoquinolinyl)amino)benzonitrile], the results for the 50% inhibitory concentration (IC50) on V600E mutant B-raf (Table II) and on recombinant HuBraf V600E (Table II) were 12 nM and 4 nM, respectively.

Take `Cc1ccc2c(Nc3ccc4c(c3)OC(F)(F)O4)ncnc2c1Nc1ncccc1-c1ncnc2[nH]cnc12` [Example 74, N-4-(2,2-difluoro-1,3-benzodioxol-5-yl)-7-methyl-N-8-(3-(9H-purin-6-yl)-2-pyridinyl)-4,8-quinazolinediamine]: the half-maximal inhibitory concentration (IC50) turned out to be 4 nM on V600E mutant B-raf (Table II) and 8 nM on recombinant HuBraf V600E (Table II).

Turning to `Cc1ccc2c(Nc3ccc(Cl)cc3)nccc2c1Nc1ncccc1-c1ncnc2cc[nH]c12` [Example 62, N-1-(4-chlorophenyl)-6-methyl-N-5-(3-(5H-pyrrolo[3,2-d]pyrimidin-4-yl)-2-pyridinyl)-1,5-isoquinolinediamine], the 50% inhibitory concentration (IC50) at V600E mutant B-raf (Table I) is 282 nM; at recombinant HuBraf V600E (Table I), 20 nM.

In the case of `Cc1ccc2c(Nc3ccc(C#N)cc3)ncnc2c1Nc1ncccc1-c1ncnc2[nH]cnc12` [Example 61, 4-((7-methyl-8-((3-(9H-purin-6-yl)-2-pyridinyl)amino)-4-quinazolinyl)amino)benzonitrile], the concentration for half-maximal inhibition (IC50) at V600E mutant B-raf (Table I) stood at 103 nM; at recombinant HuBraf V600E (Table I) it was 2 nM.

Turning to `Cc1ccc2c(Nc3ccc(C(F)(F)F)cc3)nccc2c1Nc1ncccc1-c1ncnc2[nH]ccc12` [Example 53, 6-methyl-N-5-(3-(7H-pyrrolo[2,3-d]pyrimidin-4-yl)-2-pyridinyl)-N-1-(4-(trifluoromethyl)phenyl)-1,5-isoquinolinediamine], the figures for the IC50 on V600E mutant B-raf (Table I) and at recombinant HuBraf V600E (Table I) were 52 nM and 47 nM, respectively.

Take `Cc1ccc2c(Nc3ccc(Cl)cc3)nccc2c1Oc1ncccc1-c1ncnc2[nH]cnc12` [Example 68, N-(4-chlorophenyl)-6-methyl-5-((3-(9H-purin-6-yl)-2-pyridinyl)oxy)-1-isoquinolinamine]: the figures for the concentration for half-maximal inhibition (IC50) on V600E mutant B-raf (Table I) and on recombinant HuBraf V600E (Table I) were 1000 nM and 26 nM, respectively.

Consider `Cc1ccc2c(Nc3ccc4c(c3)OC(F)(F)O4)nccc2c1Nc1ncccc1-c1ncnc2[nH]ncc12` [Example 72, N-1-(2,2-difluoro-1,3-benzodioxol-5-yl)-6-methyl-N-5-(3-(1H-pyrazolo[3,4-d]pyrimidin-4-yl)-2-pyridinyl)-1,5-isoquinolinediamine], for which the IC50 on V600E mutant B-raf (Table II) came to 18 nM; at recombinant HuBraf V600E (Table II) it was 20 nM.

With `Cc1ccc2c(Nc3ccc4c(c3)NC(=O)[C@@H]4C)nccc2c1Nc1ncccc1-c1ncnc2[nH]ccc12` [Example 47, (3R)-3-methyl-6-((6-methyl-5-((3-(7H-pyrrolo[2,3-d]pyrimidin-4-yl)-2-pyridinyl)amino)-1-isoquinolinyl)amino)-1,3-dihydro-2H-indol-2-one], the results for the half-maximal inhibitory concentration (IC50) at V600E mutant B-raf (Table I) and at recombinant HuBraf V600E (Table I) were 11 nM and 10 nM, respectively.

In the case of `Cc1ccc2c(Nc3ccc4ncsc4c3)nccc2c1Nc1ncccc1-c1ncnc2[nH]ccc12` [Example 49, N-1-1,3-benzothiazol-6-yl-6-methyl-N-5-(3-(7H-pyrrolo[2,3-d]pyrimidin-4-yl)-2-pyridinyl)-1,5-isoquinolinediamine], the values for the IC50 on V600E mutant B-raf (Table I) and on recombinant HuBraf V600E (Table I) were 10 nM and 7 nM, respectively.

On to `Cc1ccc2c(Nc3ccc(C#N)cc3)ncnc2c1Nc1ncccc1-c1ncnc2[nH]ccc12` [Example 60, 4-((7-methyl-8-((3-(7H-pyrrolo[2,3-d]pyrimidin-4-yl)-2-pyridinyl)amino)-4-quinazolinyl)amino)benzonitrile], for which the IC50 at V600E mutant B-raf (Table I) was found to be 233 nM; on recombinant HuBraf V600E (Table I), 10 nM.

For the compound `Cc1ccc2c(Nc3ccc(C#N)cc3)ncnc2c1Nc1ncccc1-c1ncnc2[nH]ncc12` [Example 70, 4-((7-methyl-8-((3-(1H-pyrazolo[3,4-d]pyrimidin-4-yl)-2-pyridinyl)amino)-4-quinazolinyl)amino)benzonitrile], the concentration for half-maximal inhibition (IC50) at V600E mutant B-raf (Table II) is 86 nM; at recombinant HuBraf V600E (Table II), 5 nM.

As to `Cc1ccc2c(Nc3ccc4c(c3)NC(=O)C4(C)C)nccc2c1Nc1ncccc1-c1ncnc2[nH]ccc12` [Example 51, 3,3-dimethyl-6-((6-methyl-5-((3-(7H-pyrrolo[2,3-d]pyrimidin-4-yl)-2-pyridinyl)amino)-1-isoquinolinyl)amino)-1,3-dihydro-2H-indol-2-one], the IC50 turned out to be 12 nM at V600E mutant B-raf (Table I) and 25 nM at recombinant HuBraf V600E (Table I).

Take `Cc1ccc2c(Nc3cccc(C(F)(F)F)c3)nccc2c1Nc1ncccc1-c1ncnc2[nH]ncc12` [Example 65, 6-methyl-N-5-(3-(1H-pyrazolo[3,4-d]pyrimidin-4-yl)-2-pyridinyl)-N-1-(3-(trifluoromethyl)phenyl)-1,5-isoquinolinediamine]: the IC50 at V600E mutant B-raf (Table I) and at recombinant HuBraf V600E (Table I) was 8 nM throughout.

As for `Cc1ccc2c(Nc3cccc(C(F)(F)F)c3)ncnc2c1Nc1ncccc1-c1ncnc2[nH]cnc12` [Example 73, 7-methyl-N-8-(3-(9H-purin-6-yl)-2-pyridinyl)-N-4-(3-(trifluoromethyl)phenyl)-4,8-quinazolinediamine], the results for the 50% inhibitory concentration (IC50) on V600E mutant B-raf (Table II) and on recombinant HuBraf V600E (Table II) were 33 nM and 26 nM, respectively.

Take `Cc1ccc2c(N[C@H](C)c3ccc(Cl)cc3)nccc2c1Nc1ncccc1-c1ncnc2[nH]cnc12` [Example 78, N-1-((1R)-1-(4-chlorophenyl)ethyl)-6-methyl-N-5-(3-(9H-purin-6-yl)-2-pyridinyl)-1,5-isoquinolinediamine]: the concentration for half-maximal inhibition (IC50) at V600E mutant B-raf (Table II) and on recombinant HuBraf V600E (Table II) was 33 nM throughout.
